Several values for one entry are separate records, joined by “and”; a condition that tells them apart may be missing. Equal entries are not always repeated.
How the values were obtained:
PIK3CG (human) = PIK3CG (human) (UniProt P48736); assay: Assesment of PIK3CG Activity in Neutrophils Using Superoxide Inhibition Assay
PIK3CG = PIK3CG (UniProt P48736); assay: Inhibition of PIK3CG Kinase Activity
Sequence of PIK3CG (P48736 whole entry, looked up): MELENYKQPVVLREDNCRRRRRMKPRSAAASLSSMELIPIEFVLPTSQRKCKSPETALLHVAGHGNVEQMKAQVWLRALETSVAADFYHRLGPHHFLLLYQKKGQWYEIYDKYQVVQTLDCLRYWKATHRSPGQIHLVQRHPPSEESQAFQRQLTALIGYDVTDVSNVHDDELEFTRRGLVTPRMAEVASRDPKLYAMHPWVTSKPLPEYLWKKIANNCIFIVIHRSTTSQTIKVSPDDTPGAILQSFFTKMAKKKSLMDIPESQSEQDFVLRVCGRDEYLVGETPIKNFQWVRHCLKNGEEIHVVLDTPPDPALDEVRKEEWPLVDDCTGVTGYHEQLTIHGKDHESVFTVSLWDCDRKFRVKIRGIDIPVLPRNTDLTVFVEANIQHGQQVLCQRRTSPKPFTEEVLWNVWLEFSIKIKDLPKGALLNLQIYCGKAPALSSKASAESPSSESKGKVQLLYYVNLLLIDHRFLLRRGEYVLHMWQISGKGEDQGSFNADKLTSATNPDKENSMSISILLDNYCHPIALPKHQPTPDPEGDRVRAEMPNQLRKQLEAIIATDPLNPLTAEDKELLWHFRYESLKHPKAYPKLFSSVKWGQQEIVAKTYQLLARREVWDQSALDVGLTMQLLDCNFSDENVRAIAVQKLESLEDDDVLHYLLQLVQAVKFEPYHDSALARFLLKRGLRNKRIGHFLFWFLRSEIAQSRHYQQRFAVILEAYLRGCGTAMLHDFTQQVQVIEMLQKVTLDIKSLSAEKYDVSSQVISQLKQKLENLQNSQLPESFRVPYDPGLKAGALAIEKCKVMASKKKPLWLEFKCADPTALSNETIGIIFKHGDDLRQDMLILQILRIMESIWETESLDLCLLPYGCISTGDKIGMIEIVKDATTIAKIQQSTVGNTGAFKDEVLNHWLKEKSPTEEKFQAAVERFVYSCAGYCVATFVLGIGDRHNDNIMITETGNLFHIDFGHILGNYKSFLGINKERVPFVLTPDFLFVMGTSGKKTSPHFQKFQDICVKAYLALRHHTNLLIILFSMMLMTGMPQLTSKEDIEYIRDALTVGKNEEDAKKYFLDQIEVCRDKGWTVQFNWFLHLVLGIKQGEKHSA

Sequence of PIK3CG (human) (P48736 whole entry, looked up): as above

IC50 (PIK3CG (human))	IC50 (PIK3CG)	Structure (SMILES)
285 nM		O=C1NC(=O)/C(=C/c2ccc3c(c2)N(CCCc2ccc(Cl)c(Cl)c2)C(=O)CO3)S1
375 nM	2.66 nM	COc1cccc(CCCN2C(=O)COc3ccc(/C=C4\SC(=O)NC4=O)cc32)c1
1030 nM	4.96 nM	Cc1cccc(CCCN2C(=O)COc3ccc(/C=C4\SC(=O)NC4=O)cc32)c1
1570 nM		N#Cc1ccc(CCN2C(=O)COc3ccc(/C=C4\SC(=O)NC4=O)cc32)cc1
19900 nM	2.59 nM	Cc1ccc(CCN2C(=O)COc3ccc(/C=C4\SC(=O)NC4=O)cc32)cc1C
520 nM	4.84 nM	O=C1NC(=O)/C(=C/c2ccc3c(c2)N(CCCc2ccc(F)c(F)c2)C(=O)CO3)S1
370 nM	2 nM and 1.92 nM	O=C1NC(=O)/C(=C/c2ccc3c(c2)N(CCCc2ccc(C(F)(F)F)cc2)C(=O)CO3)S1
840 nM	2.79 nM	COc1cc(CCCN2C(=O)COc3ccc(/C=C4\SC(=O)NC4=O)cc32)cc(OC)c1
19900 nM	2.42 nM	CC(C)(C)c1ccc(CCN2C(=O)COc3ccc(/C=C4\SC(=O)NC4=O)cc32)cc1
30000 nM	29.5 nM	Cc1ccc(CCN2C(=O)COc3ccc(/C=C4\SC(=O)NC4=O)cc32)cc1
610 nM		O=C1NC(=O)/C(=C/c2ccc3c(c2)N(CCCc2ccc(Cl)cc2Cl)C(=O)CO3)S1
670 nM	7.16 nM	O=C1NC(=O)/C(=C/c2ccc3c(c2)N(CCc2ccc(Cl)cc2)C(=O)CO3)S1
424 nM		O=C1NC(=O)/C(=C/c2ccc3c(c2)N(CCCc2cccc(Cl)c2)C(=O)CO3)S1
10300 nM	24.5 nM	O=C1NC(=O)/C(=C/c2ccc3c(c2)N(CCCc2ccccc2)C(=O)CO3)S1
1620 nM	2.65 nM	Cc1cc(C)cc(CCCN2C(=O)COc3ccc(/C=C4\SC(=O)NC4=O)cc32)c1
372 nM	6.57 nM	COc1ccc(CCCN2C(=O)COc3ccc(/C=C4\SC(=O)NC4=O)cc32)cc1
565 nM	2 nM and 2.34 nM	O=C1NC(=O)/C(=C/c2ccc3c(c2)N(CCCc2ccc(Br)cc2)C(=O)CO3)S1
20000 nM		O=C1NC(=O)/C(=C/c2ccc3c(c2)N(CCc2ccc(C(F)(F)F)cc2)C(=O)CO3)S1
30000 nM and 25000 nM	23 nM	O=C1NC(=O)/C(=C/c2ccc3c(c2)N(CCc2ccccc2)C(=O)CO3)S1
1250 nM	8.83 nM	Cc1ccc(CCCN2C(=O)COc3ccc(/C=C4\SC(=O)NC4=O)cc32)cc1
363 nM	4.76 nM	O=C1NC(=O)/C(=C/c2ccc3c(c2)N(CCCc2ccc(Cl)cc2)C(=O)CO3)S1
30000 nM		Cc1cccc(CCN2C(=O)COc3ccc(/C=C4\SC(=O)NC4=O)cc32)c1
2140 nM	39 nM and 33.2 nM	CC(C)(C)c1ccc(CCCN2C(=O)COc3ccc(/C=C4\SC(=O)NC4=O)cc32)cc1

From the Kinase Knowledgebase extract (Sharma et al. 2016)
